Measurements: ChEMBL document CHEMBL5584344, “Discovery of Dehydrogenated Imipridone Derivatives as Activators of Human Caseinolytic Protease P” (J Med Chem, 2024)
Calls of active or inactive are those of the source. No cut-off for these calls is given here.

Experiments:
MIA PaCa-2 [1] = assay: Induction of apoptosis in human MIA PaCa-2 cells assessed as late apoptotic cells at 200 nM measured after 72 hrs by Annexin V-FITC/propidium iodide staining based flow cytometric analysis (reference value: 3.59%); type: functional
MIA PaCa-2 [2] = assay: Induction of apoptosis in human MIA PaCa-2 cells assessed as necrotic cells at 100 nM measured after 72 hrs by Annexin V-FITC/propidium iodide staining based flow cytometric analysis (reference value: 0.38%); type: functional
MIA PaCa-2 [3] = assay: Induction of apoptosis in human MIA PaCa-2 cells assessed as necrotic cells at 200 nM measured after 72 hrs by Annexin V-FITC/propidium iodide staining based flow cytometric analysis (reference value: 0.38%); type: functional
MIA PaCa-2 [4] = assay: Induction of apoptosis in human MIA PaCa-2 cells transfected with shNC assessed as necrotic cells at 200 nM measured after 72 hrs by Annexin V-FITC/propidium iodide staining based flow cytometric analysis (reference value: 3.30%); type: functional
MIA PaCa-2 [5] = assay: Induction of apoptosis in human MIA PaCa-2 cells transfected with […] assessed as viable cells at 200 nM measured after 72 hrs by Annexin V-FITC/propidium iodide staining based flow cytometric analysis (reference value: 86.7%); type: functional; details: read-out: Activity
MIA PaCa-2 [6] = assay: Induction of apoptosis in human MIA PaCa-2 cells transfected with […] assessed as necrotic cells at 200 nM measured after 72 hrs by Annexin V-FITC/propidium iodide staining based flow cytometric analysis (reference value: 4.69%); type: functional
[7] = AUC (0 to infinity) in Sprague-Dawley rat at 15 mg/kg, po measured upto 1440 mins by LC-MS analysis; type: ADME, organism-based; details: in vivo
[8] = Drug concentration in Sprague-Dawley rat plasma at 15 mg/kg, po measured after 2 hrs by LC-MS analysis; type: ADME, organism-based
[9] = Drug concentration in Sprague-Dawley rat brain at 15 mg/kg, po measured after 0.5 hrs by LC-MS analysis; type: ADME, organism-based; details: read-out: Ct
[10] = Toxicity in male BALB/c nude mouse assessed as signs of toxicity at 15 to 30 mg/kg, po measured upto 28 days; type: organism-based; details: in vivo, 672 h, dose 15-30 mg/kg, time < 28 day
[11] = Toxicity in male BALB/c nude mouse histological abnormality in liver at 15 to 30 mg/kg, po measured after 28 days by H and E staining based analysis; type: organism-based; details: in vivo, 672 h, dose 15-30 mg/kg, time 28 day
[12] = Toxicity in male BALB/c nude mouse histological abnormality in spleen at 15 to 30 mg/kg, po measured after 28 days by H and E staining based analysis; type: organism-based; details: in vivo, 672 h, dose 15-30 mg/kg, time 28 day
MIA PaCa-2 [13] = details: Homo sapiens, dose 50-200 nM, time 48.0 hrs
MIA PaCa-2 [14] = details: Homo sapiens, dose 100-500 nM, time 48.0 hrs
HL-60 = details: Homo sapiens, dose 100-500 nM, time 48.0 hrs

O=c1c2c(n3ccnc3n1Cc1ccc(C(F)(F)F)cc1)CCN(Cc1cccc(Cl)c1)C2
Activity (MIA PaCa-2 [1]): 19% | Activity (MIA PaCa-2 [2]): 0.22% | Activity (MIA PaCa-2 [3]): 0.39% | Activity (MIA PaCa-2 [4]): 1.71% | viability at 0.2 µM (MIA PaCa-2 [5]): 84.7% | Activity (MIA PaCa-2 [6]): 3.36% | AUC(0-inf) [7]: 17300 ng·h/mL | concentration at 2 h [8]: 1340 ng/mL | concentration at 0.5 h [9]: 336 ng/mL | Activity [10]: Non-Toxic | Activity [11]: Non-Toxic | Activity [12]: Non-Toxic | inhibition (MIA PaCa-2 [13]): Dose-Dependent Effect | inhibition (MIA PaCa-2 [14]): Active | inhibition (HL-60): Active
